Data published in ChEMBL document CHEMBL2202954, “The effect of PLC-γ2 inhibitors on the growth of human tumour cells” (2012).

Experiments:
Format in all cases: functional
MDA-MB-468 = test: Cytotoxicity against human MDA-MB-468 cells assessed as cellular growth at 10 uM by SRB assay
T47D = test: Cytotoxicity against human T47D cells assessed as cellular growth at 10 uM by SRB assay
BT-549 = test: Cytotoxicity against human BT549 cells assessed as cellular growth at 10 uM by SRB assay
Hs-578T = test: Cytotoxicity against human Hs578T cells assessed as cellular growth at 10 uM by SRB assay
MDA-MB-231 = test: Cytotoxicity against human MDA-MB-231 cells assessed as cellular growth at 10 uM by SRB assay
MCF7 = test: Cytotoxicity against human MCF7 cells assessed as cellular growth at 10 uM by SRB assay
DU-145 = test: Cytotoxicity against human DU145 cells assessed as cellular growth at 10 uM by SRB assay
UO-31 = test: Cytotoxicity against human UO31 cells assessed as cellular growth at 10 uM by SRB assay
PC-3 = test: Cytotoxicity against human PC3 cells assessed as cellular growth at 10 uM by SRB assay
TK-10 = test: Cytotoxicity against human TK10 cells assessed as cellular growth at 10 uM by SRB assay
SN12C = test: Cytotoxicity against human SN12C cells assessed as cellular growth at 10 uM by SRB assay
RXF 393 = test: Cytotoxicity against human RXF393 cells assessed as cellular growth at 10 uM by SRB assay
ACHN = test: Cytotoxicity against human ACHN cells assessed as cellular growth at 10 uM by SRB assay
CAKI-1 = test: Cytotoxicity against human Caki1 cells assessed as cellular growth at 10 uM by SRB assay
A498 = test: Cytotoxicity against human A498 cells assessed as cellular growth at 10 uM by SRB assay
786-0 = test: Cytotoxicity against human 786-0 cells assessed as cellular growth at 10 uM by SRB assay
SK-OV-3 = test: Cytotoxicity against human SKOV3 cells assessed as cellular growth at 10 uM by SRB assay
[1] = Cytotoxicity against human NCI-ADR-RES cells assessed as cellular growth at 10 uM by SRB assay
OVCAR-8 = test: Cytotoxicity against human OVCAR8 cells assessed as cellular growth at 10 uM by SRB assay
OVCAR-4 = test: Cytotoxicity against human OVCAR4 cells assessed as cellular growth at 10 uM by SRB assay
OVCAR-5 = test: Cytotoxicity against human OVCAR5 cells assessed as cellular growth at 10 uM by SRB assay
OVCAR-3 = test: Cytotoxicity against human OVCAR3 cells assessed as cellular growth at 10 uM by SRB assay
IGROV-1 = test: Cytotoxicity against human IGROV1 cells assessed as cellular growth at 10 uM by SRB assay
UACC-62 = test: Cytotoxicity against human UACC62 cells assessed as cellular growth at 10 uM by SRB assay
UACC-257 = test: Cytotoxicity against human UACC257 cells assessed as cellular growth at 10 uM by SRB assay
SK-MEL-5 = test: Cytotoxicity against human SK-MEL-5 cells assessed as cellular growth at 10 uM by SRB assay
SK-MEL-28 = test: Cytotoxicity against human SK-MEL-28 cells assessed as cellular growth at 10 uM by SRB assay
SK-MEL-2 = test: Cytotoxicity against human SK-MEL-2 cells assessed as cellular growth at 10 uM by SRB assay
MDA-MB-435 = test: Cytotoxicity against human MDA-MB-435 cells assessed as cellular growth at 10 uM by SRB assay
M14 = test: Cytotoxicity against human M14 cells assessed as cellular growth at 10 uM by SRB assay
Malme-3M = test: Cytotoxicity against human MALME-3M cells assessed as cellular growth at 10 uM by SRB assay
LOX IMVI = test: Cytotoxicity against human LOXIMVI cells assessed as cellular growth at 10 uM by SRB assay
U-251 = test: Cytotoxicity against human U251 cells assessed as cellular growth at 10 uM by SRB assay
SNB-75 = test: Cytotoxicity against human SNB75 cells assessed as cellular growth at 10 uM by SRB assay
SNB-19 = test: Cytotoxicity against human SNB19 cells assessed as cellular growth at 10 uM by SRB assay
SF-539 = test: Cytotoxicity against human SF539 cells assessed as cellular growth at 10 uM by SRB assay
SF-295 = test: Cytotoxicity against human SF295 cells assessed as cellular growth at 10 uM by SRB assay
SF-268 = test: Cytotoxicity against human SF268 cells assessed as cellular growth at 10 uM by SRB assay
SW-620 = test: Cytotoxicity against human SW620 cells assessed as cellular growth at 10 uM by SRB assay
KM12 = test: Cytotoxicity against human KM12 cells assessed as cellular growth at 10 uM by SRB assay
HT-29 = test: Cytotoxicity against human HT-29 cells assessed as cellular growth at 10 uM by SRB assay
HCT-15 = test: Cytotoxicity against human HCT15 cells assessed as cellular growth at 10 uM by SRB assay
HCT-116 = test: Cytotoxicity against human HCT116 cells assessed as cellular growth at 10 uM by SRB assay
HCC 2998 = test: Cytotoxicity against human HCC2998 cells assessed as cellular growth at 10 uM by SRB assay
NCI-H522 = test: Cytotoxicity against human NCI-H522 cells assessed as cellular growth at 10 uM by SRB assay
COLO 205 = test: Cytotoxicity against human COLO205 cells assessed as cellular growth at 10 uM by SRB assay
NCI-H460 = test: Cytotoxicity against human NCI-H460 cells assessed as cellular growth at 10 uM by SRB assay
NCI-H322M = test: Cytotoxicity against human NCI-H322M cells assessed as cellular growth at 10 uM by SRB assay
NCI-H226 = test: Cytotoxicity against human NCI-H226 cells assessed as cellular growth at 10 uM by SRB assay
NCI-H23 = test: Cytotoxicity against human NCI-H23 cells assessed as cellular growth at 10 uM by SRB assay
EKVX = test: Cytotoxicity against human EKVX cells assessed as cellular growth at 10 uM by SRB assay
HOP-62 = test: Cytotoxicity against human HOP62 cells assessed as cellular growth at 10 uM by SRB assay
A549 = test: Cytotoxicity against human A549 cells assessed as cellular growth at 10 uM by SRB assay
SR = test: Cytotoxicity against human SR cells assessed as cellular growth at 10 uM by SRB assay
MOLT-4 = test: Cytotoxicity against human MOLT4 cells assessed as cellular growth at 10 uM by SRB assay
RPMI-8226 = test: Cytotoxicity against human RPMI8226 cells assessed as cellular growth at 10 uM by SRB assay
K562 = test: Cytotoxicity against human K562 cells assessed as cellular growth at 10 uM by SRB assay
HL-60(TB) = test: Cytotoxicity against human HL-60(TB) cells assessed as cellular growth at 10 uM by SRB assay
CCRF-CEM = test: Cytotoxicity against human CCRF-CEM cells assessed as cellular growth at 10 uM by SRB assay
HOP-92 = test: Cytotoxicity against human HOP92 cells assessed as cellular growth at 10 uM by SRB assay

Structure (SMILES): O=C(Nc1ccc(S(=O)(=O)Nc2nccs2)cc1)c1cccs1
- Activity (MDA-MB-468): 102.57%
- Activity (T47D): 105.19%
- Activity (BT-549): 114.16%
- Activity (Hs-578T): 122.2%
- Activity (MDA-MB-231): 103.15%
- Activity (MCF7): 103.71%
- Activity (DU-145): 114.06%
- Activity (UO-31): 95.49%
- Activity (PC-3): 113.66%
- Activity (TK-10): 104.94%
- Activity (SN12C): 103.07%
- Activity (RXF 393): 110.47%
- Activity (ACHN): 116.25%
- Activity (CAKI-1): 99.02%
- Activity (A498): 114.15%
- Activity (786-0): 104.56%
- Activity (SK-OV-3): 117.21%
- Activity [1]: 120.26%
- Activity (OVCAR-8): 106.2%
- Activity (OVCAR-4): 103.47%
- Activity (OVCAR-5): 112.09%
- Activity (OVCAR-3): 116.67%
- Activity (IGROV-1): 120.24%
- Activity (UACC-62): 104.61%
- Activity (UACC-257): 102.54%
- Activity (SK-MEL-5): 107.39%
- Activity (SK-MEL-28): 115.4%
- Activity (SK-MEL-2): 113.23%
- Activity (MDA-MB-435): 110.15%
- Activity (M14): 110.69%
- Activity (Malme-3M): 104.82%
- Activity (LOX IMVI): 110.65%
- Activity (U-251): 101.85%
- Activity (SNB-75): 87.94%
- Activity (SNB-19): 106.66%
- Activity (SF-539): 105.81%
- Activity (SF-295): 140.51%
- Activity (SF-268): 114.27%
- Activity (SW-620): 111.55%
- Activity (KM12): 114.86%
- Activity (HT-29): 101.43%
- Activity (HCT-15): 104.67%
- Activity (HCT-116): 108.46%
- Activity (HCC 2998): 108.36%
- Activity (NCI-H522): 93.79%
- Activity (COLO 205): 135.23%
- Activity (NCI-H460): 123.68%
- Activity (NCI-H322M): 104.64%
- Activity (NCI-H226): 108.77%
- Activity (NCI-H23): 108.72%
- Activity (EKVX): 97.85%
- Activity (HOP-62): 114.96%
- Activity (A549): 96.04%
- Activity (SR): 101.57%
- Activity (MOLT-4): 95.09%
- Activity (RPMI-8226): 107.43%
- Activity (K562): 104.24%
- Activity (HL-60(TB)): 85.93%
- Activity (CCRF-CEM): 89.52%

Structure (SMILES): COc1ccc(S(=O)(=O)n2ccc(-c3ccc4c(c3)CCC(C)(C)O4)n2)cc1
- Activity (MDA-MB-468): 36.58%
- Activity (T47D): 46.7%
- Activity (BT-549): 65.47%
- Activity (Hs-578T): 97.76%
- Activity (MDA-MB-231): 87.67%
- Activity (MCF7): 73.48%
- Activity (UO-31): 78.12%
- Activity (PC-3): 78.05%
- Activity (TK-10): 68.22%
- Activity (SN12C): 97.48%
- Activity (RXF 393): 110.14%
- Activity (ACHN): 104.15%
- Activity (CAKI-1): 63.3%
- Activity (A498): 89.14%
- Activity (786-0): 67.61%
- Activity (SK-OV-3): 90.41%
- Activity [1]: 57.3%
- Activity (OVCAR-8): 83.81%
- Activity (OVCAR-4): 52.32%
- Activity (OVCAR-5): 108.8%
- Activity (OVCAR-3): 81.18%
- Activity (IGROV-1): 90.82%
- Activity (UACC-62): 50.48%
- Activity (UACC-257): 57.41%
- Activity (SK-MEL-5): 42.57%
- Activity (SK-MEL-28): 98.27%
- Activity (SK-MEL-2): 84.41%
- Activity (MDA-MB-435): 74.3%
- Activity (M14): 86.46%
- Activity (Malme-3M): 109.7%
- Activity (LOX IMVI): 79.45%
- Activity (U-251): 84.18%
- Activity (SNB-75): 83.99%
- Activity (SNB-19): 87.12%
- Activity (SF-539): 102.86%
- Activity (SF-295): 47.66%
- Activity (SF-268): 94.69%
- Activity (SW-620): 90.28%
- Activity (KM12): 81.91%
- Activity (HT-29): 84.48%
- Activity (HCT-15): 97.58%
- Activity (HCT-116): 68.33%
- Activity (HCC 2998): 88.92%
- Activity (NCI-H522): 55.57%
- Activity (COLO 205): 107.28%
- Activity (NCI-H460): 75.37%
- Activity (NCI-H322M): 101%
- Activity (NCI-H226): 71.38%
- Activity (NCI-H23): 59.58%
- Activity (HOP-92): 61.38%
- Activity (EKVX): 51.56%
- Activity (HOP-62): 112.43%
- Activity (A549): 73.96%
- Activity (MOLT-4): 65.89%
- Activity (RPMI-8226): 49.25%
- Activity (K562): 55.64%
- Activity (HL-60(TB)): 60.02%
- Activity (CCRF-CEM): 58.86%
